Laboratory results reported in patent US20250228239A1, “MOLECULES HAVING PESTICIDAL UTILITY, AND INTERMEDIATES, COMPOSITIONS, AND PROCESSES, RELATED THERETO” (priority 2024, published 2025).

Tests used:
Assay type in all cases: in vivo
[1] = tested on: Cabbage Looper (Trichoplusia ni, TRIPNI); assay: Bioassays on Cabbage Looper (CL), 128-well diet tray assay; conditions: Trichoplusia ni; Cabbage Looper; rating class; read-out: CL
Outline: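 Percent mortality, averaged across eight replicate wells, after second-instar larvae (1–5 per well) fed for five to seven days on diet dosed at 50 μg/cm^2. Compound was applied in acetone-water 90:10 and dried; trays kept vented at 25° C under 14:10 photoperiod.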

[2] = tested on: Green Peach Aphid (Myzus persicae, MYZUPE); assay: Bioassays on Green Peach Aphid (GPA), foliar spray on cabbage seedlings; conditions: 72 h, Green Peach Aphid, rating class, read-out: GPA
Outline: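 Percent control (Abbott-corrected versus solvent-sprayed plants) comes from live-aphid counts three days after treatment at about 25° C. Test solution at 200 ppm was sprayed to runoff onto both leaf surfaces of cabbage seedlings infested a day earlier with 20-50 aphids; four replicate pots.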

[3] = tested on: Beet Armyworm (Spodoptera exigua, LAPHEG); assay: Bioassays on Beet Armyworm (BAW), 128-well diet tray assay; conditions: Spodoptera exigua; Beet Armyworm; rating class; read-out: BAW
Outline: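 Eight diet wells per compound were treated at 50 μg/cm^2 (acetone-water 90:10), dried, then infested with 1–5 second-instar larvae each. After five to seven days at 25 °C under 14:10 photoperiod, mortality was scored and averaged across wells.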

[4] = tested on: Yellow Fever Mosquito (Aedes aegypti, AEDSAE); conditions: Yellow Fever Mosquito; rating class
Outline: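 Larvae ~1 day old, in liver powder/water; compound from 4000 ppm DMSO stock diluted with water/acetone (90:10); 6 reps; lidded, RT, 3 d; mortality scored per well, rated.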

SMILES	pest or weed control at 50 µg/cm2 [1]	pest or weed control at 200 µg/mL [2]	pest or weed control at 50 µg/cm2 [3]	YFM [4]
CC(C)(C)OC(=O)Nc1cc(NC(=O)c2cc(NC(=O)[C@H]3[C@H](c4ccc(F)c(C(F)(F)F)c4)C3(Cl)Cl)ccc2Cl)c(F)c(F)c1F [F1736, tert-Butyl (5-(2-chloro-5-((1R,3R)-2,2-dichloro-3-(4-fluoro-3-(trifluoromethyl)phenyl)cyclopropane-1-carboxamido)benzamido)-2,3,4-trifluorophenyl)carbamate]	50 to 100%	0 to 80%	50 to 100%	A (80–100)
CCOC(C)C(=O)Nc1c(F)ccc(NC(=O)c2cc(NC(=O)[C@H]3[C@H](c4cccc(C(F)(F)F)c4)C3(Cl)Cl)ccc2Cl)c1F (stereo partly drawn) [F1737, 2-Chloro-5-((1R,3R)-2,2-dichloro-3-(3-(trifluoromethyl)phenyl)cyclopropane-1-carboxamido)-N-(3-(2-ethoxypropanamido)-2,4-difluorophenyl)benzamide]	50 to 100%	0 to 80%	50 to 100%	A (80–100)
CCCOC(C)C(=O)Nc1c(F)ccc(NC(=O)c2cc(NC(=O)[C@H]3[C@H](c4ccc(F)c(C(F)(F)F)c4)C3(Cl)Cl)ccc2Cl)c1F (stereo partly drawn) [F1739, 2-Chloro-5-((1R,3R)-2,2-dichloro-3-(4-fluoro-3-(trifluoromethyl)phenyl)cyclopropane-1-carboxamido)-N-(2,4-difluoro-3-(2-propoxypropanamido)phenyl)benzamide]	50 to 100%	0 to 80%	50 to 100%	A (80–100)
Nc1cc(NC(=O)c2cc(NC(=O)[C@H]3[C@H](c4ccc(F)c(C(F)(F)F)c4)C3(Cl)Cl)ccc2Cl)c(F)c(F)c1F [F1740, N-(5-Amino-2,3,4-trifluorophenyl)-2-chloro-5-((1R,3R)-2,2-dichloro-3-(4-fluoro-3-(trifluoromethyl)phenyl)cyclopropane-1-carboxamido)benzamide]	50 to 100%	80 to 100%	50 to 100%	A (80–100)
O=C(COC(F)(F)F)Nc1c(F)ccc(NC(=O)c2cc(NC(=O)[C@H]3[C@H](c4ccc(F)c(C(F)(F)F)c4)C3(Cl)Cl)ccc2Cl)c1F [F1742, 2-Chloro-5-((1R,3R)-2,2-dichloro-3-(4-fluoro-3-(trifluoromethyl)phenyl)cyclopropane-1-carboxamido)-N-(2,4-difluoro-3-(2-(trifluoromethoxy)acetamido)phenyl)benzamide]	50 to 100%	0 to 80%	50 to 100%	A (80–100)
